# Key:
# [1] = tested on: HdhQ111 / HdhQ7 mouse striatal cells; experiment: Mitochondrial morphology, anti-Tom20 staining; type: cell-based
# Description: Figure 4 HV-3 treatment reduces mitochondrial damage and cell death in HD cell cultures. Mouse HdhQ7 and HdhQ111 striatal cells were treated with control peptide TAT or peptide HV-3 (3 uM/day for 3 days). (a) Left panel: Mitochondrial membrane potential (MMP) was determined by TMRM fluorescent dye. Right panel: HdhQ111 cells were transfected with control siRNA (siCon) and VCP siRNA (siVCP) for three days. The MMP was determined by TMRM in HdhQ111 cells treated with TAT or HV-3. (b) Mitochondrial morphology was determined by staining cells with anti-Tom20 antibody. Scale bar: 10 μm. The percentage of cells with fragmented mitochondria relative to the total number of cells was quantitated. At least 100 cells per group were counted. (c) Mitochondrial morphology was determined by EM. The length of mitochondria and the number of mitophagosomes were quantitated. At least 90 mitochondria per group were counted. […] HMGB1 release into culture medium was determined by IB analysis with anti-HMGB1 antibody. […] Cell death was determined by the release of LDH. […] (g) Quantitation of neurite length of medium spiny neurons. At least 50 neurons per group were counted by an observer blind to experimental conditions. (h) Left: the MMP was determined by TMRM fluorescent dye. […] Mitochondrial length along neurites of DARPP32/Tuj1-positive neurons was quantitated. […]
# R6/2 mice = experiment: PGC1-alpha protein level in mouse brain; type: in vivo; conditions: R6/2 mouse brains (peer review file)
# Excerpt: Comment 2: Also how do the authors fit this in with the well-established defects in PGC1-alpha in HD. Do you have to have both?
# Response: We thank the reviewer for these insightful comments. Following […]
# mouse brains of R6/2 mice treated with either HV-3 or control peptide TAT.
# Consistent with previous studies, we observed that PGC1-alpha was decreased in HD R6/2 mouse brains. To our surprise, treatment with HV-3 can partially […]
# on the right). It is possible that this increase in PGC1-alpha level is an indirect effect of improvement of mitochondrial mass and quality by the HV-3 treatment.
# Recent studies have shown that PGC1-alpha regulates mitophagy and autophagy via TFEB (Tsunemi T et al., Sci Trans Med, 2014; Siddiqui A et al., J Neurosci, 2015). Thus, our result may raise another possibility that there is a correlation between PGC1alpha and VCP-mediated mitophagy in HD. However, the mechanism remains to be determined, and it is beyond the scope of this manuscript. In response to the reviewer’s comment, we now add the following sentences in the discussion in the revised manuscript.
# “In addition, PGC1α, a key regulator of mitochondrial biogenesis implicated in HD pathogenesis, has recently been reported to regulate mitophagy and autophagy through TFEB signaling 65, 66. […]
smiles,measurement,setting,value
CSCC[C@H](NC(=O)[C@@H](NC(=O)[C@H](CC(C)C)NC(=O)[C@@H](NC(=O)[C@H](Cc1c[nH]cn1)NC(=O)CCCCCNC(=O)[C@H](CCCNC(=N)N)NC(=O)[C@H](CCCNC(=N)N)NC(=O)[C@H](CCCNC(=N)N)NC(=O)[C@H](CCC(N)=O)NC(=O)[C@H](CCCNC(=N)N)NC(=O)[C@H](CCCNC(=N)N)NC(=O)[C@H](CCCCN)NC(=O)[C@H](CCCCN)NC(=O)[C@H](CCCNC(=N)N)NC(=O)CNC(=O)[C@@H](N)Cc1ccc(O)cc1)C(C)C)C(C)C)C(=O)N[C@@H](CS)C(=O)N[C@@H](C)C(=O)N[C@H](C(N)=O)[C@@H](C)O [HV-3],fragmented mitochondria,"[1]; HdhQ111 cells, 3 uM/day for 3 days, anti-Tom20",reduced the number of fragmented mitochondria
same,"mitochondrial morphology, wt",[1]; wt counterparts of the HD models,only minor effects
same,PGC1-alpha protein level,R6/2 mice,improve the protein level of PGC1-alpha in the R6/2 mouse brains

# From PMC5007466, “VCP recruitment to mitochondria causes mitophagy impairment and neurodegeneration in models of Huntington's disease” (Nature Communications, 2016)
